From article PMC11643744, “New Conjugates of Vancomycin with Cell-Penetrating Peptides—Synthesis, Antimicrobial Activity, Cytotoxicity, and BBB Permeability Studies” (Molecules, 2024)
In brackets after ≈: the same amount, converted by molar mass. Several values for one entry are separate records, joined by “and”; a condition that tells them apart may be missing. Equal values may be shown once. Read-outs that look alike come from different tables or passages of the source.

How the values were obtained:
S. aureus ATCC 29213 = experiment: microbe, parasite or virus in culture; assay type: cell-based, Staphylococcus aureus; settings: Staphylococcus aureus
Protocol: (§1) The antimicrobial activity of the synthesized compounds was evaluated against four reference bacterial strains: Staphylococcus aureus (ATCC 29213), Enterococcus faecalis (ATCC 29212), Escherichia coli (ATCC 25922), and Pseudomonas aeruginosa (ATCC 27853), which are commonly used for determining antibacterial activity. In addition, two clinical strains, S. aureus (MRSA) and E. faecium (VRE), were included in the study. The bacterial strains were inoculated from Selectrol discs (Biomaxima SA, Lublin, Poland) onto blood agar (Graso Biotech, Starogard Gdański, Poland) and incubated at 37 °C for 24 h. Before testing, the strains were cultured aerobically on blood agar at 37 °C for 24 h.
(§2) The susceptibility of microorganisms to the synthesized compounds was determined using the broth microdilution assay, following the guidelines outlined by CLSI [30]. The final concentrations of the tested compounds in Mueller–Hinton broth, in 96-well plates (VWR International Sp. z o.o., Gdańsk, Poland), ranged from 0.125 to 256 mg/L. To prepare the bacterial suspension, bacteria from the overnight culture on blood agar were diluted in sterile 0.9% NaCl to achieve a turbidity equivalent to a 0.5 McFarland standard. The adjusted inoculum suspension was further diluted in Mueller–Hinton broth so that after inoculation, each well contained approximately 5 × 10^5 CFU/mL. Aliquots (5 µL) of bacterial suspension were added to each solution. The sterility control (containing the broth) and the growth control (containing the reference strain in broth without the tested compound) were also set up. The antibiotics vancomycin and gentamicin were used as a control. The plates were incubated at 37 °C under aerobic conditions. The results are expressed as the MIC of the tested compounds, which was defined as the lowest concentration at which no visible growth of bacteria (no turbidity) was observed. The assay was performed in triplicate.

[1] = system: S. aureus MRSA (clinical isolate no 203); experiment: microbe, parasite or virus in culture; assay type: cell-based, Staphylococcus aureus; settings: Staphylococcus aureus, read-out: MIC S. aureus MRSA
Protocol: as §1, §2

E. coli ATCC 25922 = experiment: microbe, parasite or virus in culture; assay type: cell-based, Escherichia coli; settings: Escherichia coli, ATCC25922; reference strain
Protocol: as §1, §2

[2] = system: E. faecium VRE (clinical isolate UCK 7979384); experiment: microbe, parasite or virus in culture; assay type: cell-based; settings: Enterococcus faecium, VRE, read-out: MIC E. faecium VRE
Protocol: as §1, §2

[3] = system: Pseudomonas aeruginosa (ATCC 27853); experiment: Broth microdilution MIC, P. aeruginosa reference strain; assay type: cell-based
Protocol: as §1
The susceptibility of microorganisms to the synthesized compounds was determined using the broth microdilution assay, following the guidelines outlined by CLSI [30]. The final concentrations of the tested compounds in Mueller–Hinton broth, in 96-well plates (VWR International Sp. z o.o., Gdańsk, Poland), ranged from 0.125 to 256 mg/L. To prepare the bacterial suspension, bacteria from the overnight culture on blood agar were diluted in sterile 0.9% NaCl to achieve a turbidity equivalent to a 0.5 McFarland standard. […] The results are expressed as the MIC of the tested compounds, which was defined as the lowest concentration at which no visible growth of bacteria (no turbidity) was observed. […]

E. faecalis ATCC 29212 = experiment: microbe, parasite or virus in culture; assay type: cell-based, Enterococcus faecalis; settings: Enterococcus faecalis
Protocol: as §1, §2

PAMPA-BBB assay = settings: 20 h incubation, mean ± SEM
Description: This assay utilized a 96-well plate assembly consisting of a filter plate pre-coated with polar brain lipids (donor plate) and a receiver plate (acceptor plate). The phospholipid mixture used to coat the membrane was extracted from porcine polar brain lipids, with the following composition: 12.6% phosphatidylcholine, 33.1% phosphatidylethanolamine, 18.5% phosphatidylserine, 4.1% phosphatidylinositol, 0.8% phosphatidic acid, and 30.9% of other compounds, including cerebrosides, sulfatides, and pigments.
In each well of the donor filtration plate (Multiscreen Filter Plate, PVDF with a pore size of 0.45 µm), 5 µL of the phospholipid mixture in n-dodecane (20 mg/mL) was carefully applied to form the artificial membrane. After coating, 200 µL of phosphate-buffered saline (PBS at pH 7.4) containing 5% dimethyl sulfoxide (DMSO) as a co-solvent, and the test compound (at a concentration of 20 µM) was added to each well of the donor plate (in triplicate). […] The plate lid was then replaced and the resulting assembled donor–acceptor plates were incubated at room temperature for 20 h. After this time, the donor plate was removed and solutions from each well of both acceptor and donor plates were collected for further analysis. The concentrations of the tested compounds were determined by LC-MS. The analysis was conducted by UHPLC-MS system (Shimadzu Nexera X2 with LCMS-2020 detector) using a ReproSil Pure 120 ODS-3 column (Dr. Maisch GmbH, 100 × 2 mm, 2.4 µm particle size) with several gradients of ACN with 0.1% FA and 0.05% TFA at a flow rate of 0.3 mL/min. The eluted solution was monitored by an ESI-MS detector operated in a selected ion monitoring mode (SIM). […] CE=CD×VD+CA×VA/VD+VA

S. aureus (ATCC 29213) = experiment: Checkerboard assay, interaction of Van with CPP components (FICI); assay type: cell-based, Staphylococcus aureus; settings: Van alone
Protocol: To determine possible interactions between Van and the CPP components of the conjugates, fractional inhibitory concentrations (FICs) were calculated for the tested compounds (Prop-Tat (47–57) and Prop-Arg9) using the following formula: FICA = MICA(with B)/MICA, FICB = MICB(with A)/MICB. To determine MICA(with B) and MICB(with A), a checkerboard assay was carried out in 96-well microtiter plates. Each test was performed in duplicate. The concentration range was 1.07 to 8 µg/mL for Van, 2.13 to 16 µg/mL for Prop-Tat (47–58), and 8.54 to 64 µg/mL for Prop-Arg9. Aliquots of 5 μL of bacterial suspension (at a concentration of 10^7 CFU/mL) were added to each well of the 96-well plate containing 100 μL of test compounds in Mueller–Hinton broth. The bacterial strain used was S. aureus (ATCC 29213). The plates were then incubated at 37 °C for 24 h. […] FIC values for Van, Prop-Tat (47–57) and Prop-Arg9 were calculated as follows: FICVan = MICVan+Prop-Tat (47–57) or FICVan = MICVan+Prop-Arg9 divided by MIC of Van alone, FICProp-Tat (47–57) = MICProp-Tat (47–57)+Van divided by MIC of Prop-Tat (47–57) alone, and FICProp-Arg9 = MICProp-Arg9+Van divided by MIC of Prop-Arg9 alone. The FIC indexes (FICIs) were calculated for the tested compounds as the sum of FICA and FICB.

[4] = system: normal human fibroblasts, BJ line (CRL-2522); experiment: Neutral red cytotoxicity assay; settings: 24 h
Protocol: Normal human fibroblasts, BJ line (CRL-2522™), Eagle’s Minimum Essential Medium (EMEM), and fetal bovine serum (FBS) were obtained from ATCC (Manassas, VA, USA). Cells were grown following ATCC guidelines in an EMEM medium supplemented with 10% FBS at 37 °C in a humidified atmosphere of 95% air and 5% CO2 in a HeraCell 150 incubator (Heraeus, Hanau, Germany).
The assay was performed as per previously published protocols with slight modifications. In brief, BJ cells were plated in 96-well tissue culture plates (Nest Scientific Biotechnology, Wuxi, China) at a density of 6 × 10^3 cells per well and allowed to attach for 24 h in EMEM supplemented with 10% FBS. After the incubation period, the medium was removed, and 10% dimethyl sulfoxide (DMSO)-treated cells (Sigma-Aldrich, St. Louis, MO, USA) were used as a positive control, while nontreated cells served as a negative control.
The cells were treated with peptides suspended in EMEM medium supplemented with 10% FBS and incubated for 24 h at 37 °C in a humidified atmosphere of 95% air and 5% CO2. After the incubation, the supernatants were discarded and replaced with 100 µL of non-supplemented EMEM containing 0.33% neutral red (Sigma-Aldrich) diluted 1:40. The cells were incubated for an additional 2 h at 37 °C. Following incubation, the neutral red medium was removed, and the cells were washed with 100 µL of phosphate-buffered saline (PBS) per well.
To extract the dye into the solution, the cells were treated with 150 µL of a solution containing 50% ethanol (Alchem, Torun, Poland), 49% distilled H2O, and 1% acetic acid (Alchem, Torun, Poland) and incubated under shaking at 37 °C for 10 min. Absorbance was measured at 540 nm using a Synergy H1 plate reader (BioTek Instruments, Winooski, VT, USA). The assay was performed in triplicate to ensure reproducibility.

Row | MIC (S. aureus ATCC 29213; ATCC29213, reference strain, read-out: MIC S. aureus ATCC 29213) | MIC ([1]; methicillin-resistant clinical isolate no 203) | MIC (E. coli ATCC 25922) | MIC ([2]; vancomycin-resistant clinical isolate UCK 7979384) | MIC ([3]; Pseudomonas aeruginosa, ATCC27853, reference strain) | MIC (E. faecalis ATCC 29212; ATCC29212, reference strain, read-out: MIC E. faecalis ATCC 29212) | Compound | R, mass retention (PAMPA-BBB assay) | MIC (S. aureus ATCC 29213; ATCC29213, read-out: MIC S. aureus ATCC 29213) | MIC [1] | MIC [2] | inhibitory activity against P. aeruginosa ([3]; at the concentrations tested) | MIC (E. faecalis ATCC 29212; ATCC29212, read-out: MIC E. faecalis ATCC 29212) | MICA (S. aureus (ATCC 29213)) | concentration above which cytotoxicity was shown [4] | effect on cell viability ([4]; at concentrations up to 4 µg/mL)
1 | 0.24 µg/mL and 0.5 µM | 0.48 µg/mL and 1 µM | 1.95 µg/mL and 4.08 µM | 7.8 µg/mL and 16.3 µM | 4.08 µM (≈ 1.95 µg/mL) | 7.8 µg/mL and 16.3 µM | CNC(C)C1CCC(N)C(OC2C(N)CC(N)C(OC3OCC(C)(O)C(NC)C3O)C2O)O1 (stereo not drawn) [Gentamicin] | – | – | – | – | – | – | – | – | –
2 | – | – | – | – | – | – | CN[C@H](CC(C)C)C(=O)N[C@H]1C(=O)N[C@@H](CC(N)=O)C(=O)N[C@H]2C(=O)N[C@H]3C(=O)N[C@H](C(=O)N[C@H](C(=O)O)c4cc(O)cc(O)c4-c4cc3ccc4O)[C@H](O)c3ccc(c(Cl)c3)Oc3cc2cc(c3O[C@@H]2O[C@H](CO)[C@@H](O)[C@H](O)[C@H]2O[C@H]2C[C@](C)(N)[C@H](O)[C@H](C)O2)Oc2ccc(cc2Cl)[C@H]1O [Vancomycin] | 11.3 ± 3.4% | 2 µg/mL and 1.35 µM | 1.5 µg/mL and 1.01 µM | > 256 µg/mL and > 172 µM | resistant | 8 µg/mL and 5.38 µM | 2 µg/mL | above 16 µg/mL | did not substantially affect cell viability
